The test system of data set [1] is apomorphine-induced vomiting. The data set is described as follows: Inhibitory effect on apomorphine-induced vomiting. In kind it is in vivo, dogs (Beagle). As to conditions: 2 h before s.c. apomorphine hydrochloride 0.3 mg/kg, emetic episodes 1 h. The method, then: A group of 3-4 dogs (Beagle, 8-15 kg) was used for examining inhibitory effects of the test compounds on apomorphine-induced vomiting according to the method of Chen and Ensor [cf. J. Pharmacol. Exp. Ther., 98, 245-250 (1950)]. Test compounds, dissolved or suspended in a 0.5% tragacanth solution were orally administered two hours before the subcutaneous administration of apomorphine hydrochloride (0.3 mg/kg). Then, the emetic episodes were counted for one hour. The emetic episodes of the compound-treated group were compared with those of the corresponding control (non-dosed) group, and the percent inhibition was calculated.

For data set [2], the system named is gastric emptying. The data set is described as follows: Gastric emptying enhancing activity. In kind it is in vivo, Male Wistar rats. As to conditions: 3 mg/kg oral, 60 min before test meal; increase from control. As to the method: The test was carried out according to the method of Scarpignato et al. [cf. Arch. Int. Pharmacodyn., 246, 286-294 (1980)]. Male Wistar rats, weighing 130-150 g, were fasted for 18 hours before experimentation, and 1.5 ml of a test meal (phenol red 0.05% in a 1.5% aqueous methylcellulose solution) was orally given. Fifteen minutes after administration of the meal the stomach was removed and the amount of phenol red remaining in the stomach was measured. The test compounds, dissolved or suspended in a 0.5% tragacanth solution, were orally administered 60 minutes before administration of the test meal. The rate of gastric emptying was calculated according to the amount of phenol red remaining in the stomach, and the activity of the test compounds was expressed in terms of increase in the emptying rate from the control.

In data set [3] the test system is gastric emptying delayed by cholecystokinin. The data set is described as follows: Effect on gastric emptying delayed by cholecystokinin. In kind it is in vivo, Male Wistar rats. Also on record: key to Effect on gastric emptying delayed by cholecystokinin: +: slightly to moderately improved; ++: markedly improved; ±: no improvement. As to conditions: for Effect on gastric emptying delayed by cholecystokinin: cholecystokinin 3 μg/kg s.c.; for Gastric emptying delayed by cholecystokinin (in words): compound 2: 30 or 100 mg/kg, 7b and Compound A: 10, 30 or 100 mg/kg. The method, then:
(§1) The test was carried out according to the method of Scarpignato et al. [c f. Arch. int. Pharmacodyn., 246, 286-294 (1980)]. Male Wistar rats, weighing 130-150 g, were fasted for 18 hours before experimentation, and 1.5 ml of a test meal (phenol red 0.05% in a 1.5% aqueous methylcellulose solution) was orally given. Fifteen minutes after administration of the meal the stomach was removed and the amount of phenol red remaining in the stomach was measured. The test compounds, 10, 30 or 100 mg/kg, each dissolved or suspended in a 0.5% tragacanth solution, were orally administrated 60 minutes before administration of the test meal. Gastric emptying was delayed by subcutaneous administration of cholesystokinin 3 μg/kg or morphine 3 mg/kg 5 minutes before the administration of phenol red. The number of animals used was 5 to 10.

Data set [4] concerns gastrointestinal motility. The data set is described as follows: Effect on gastrointestinal motility in conscious dog. Type of data set: in vivo, beagle dogs. As to conditions: 3 and 10 mg/kg intragastric; fed state, conscious dogs. As to the method: Four healthy beagle dogs per group of both sexes weighing 10 to 12 kg were anesthetized with an i.v. injection of pentobarbital sodium (Nembutal, 30 mg/kg b. wt.), and the abdominal cavity was opened under aseptic conditions. Extraluminal force transducers were sutured onto the seromuscular layer of the gastric antrum, 3 cm proximal to the pyloric ring, the duodenum, the jejunum, the […] terminal ileum in a manner to measure circular muscle contraction, following the method of Ito et al., [cf. Gastrointerol. Japan. 12, 275-283 (1977).] For intragastric (i.g.) administration of drugs, a Silastic tube (Fr. size 6.5) was inserted into the lumen of the gastric body, and the tube was fixed onto the adjacent serosa. The lead wires of these transducers and gastric tube were taken out of abdominal cavity and then brought out through a skin incision made between the scapulae. The outer ends of the lead wires were sutured onto the skin adjacent to the skin incision. After the operation, jacket protector was placed on the dog to protect the lead wires and the Silastic tube. The dogs were housed in individual experimental cages and given dog food at 10 a.m., and water was given freely. Test compounds at 3 and 10 mg/kg were suspended in 0.5% tragacanth solution and given i.g. through the indwelling Silastic tube.

In data set [5] the test system is exploratory activity. In words: Inhibitory effect on exploratory activity. Type of data set: in vivo, male mice (Std-ddy strain). As to conditions: oral, 2 h before test, 3 min counting, Probit. The text has this: A group of 5 male mice (Std-ddy strain, 20-25 g) was used. Two hours after oral administration of the test compounds in the form of 0.5% tragacanth solution or suspension, mice were placed individually in a test box (23×35×30 cm) on Animex activity meter (Farad Co.). Immediately thereafter, activity counting was started and lasted for three minutes. The mean counts of the compound-treated group were compared with those of the corresponding control (non-dosed) group, and the percent inhibition was calculated and the 50% inhibitory dose (ID50) was obtained according to the method of Probit.

Data set [6] is described as follows: in vivo. As to conditions: mouse, oral, mice, 7 days observation.
Data set [7] concerns gastrointestinal motility. The data set is described as follows: Gastrointestinal motility improving activity (overall statement). As to conditions: in vivo.
In data set [8] the test system is gastric emptying delayed by morphine. The data set is described as follows: Effect on gastric emptying delayed by morphine. Type of data set: in vivo, Male Wistar rats. Also on record: key to Effect on gastric emptying delayed by morphine: +: slightly to moderately improved; ++: markedly improved; ±: no improvement. As to conditions: for Effect on gastric emptying delayed by morphine: morphine 3 mg/kg s.c. The method, then:
as §1

The test system of data set [9] is dopamine D2 receptor. As to conditions: cited from earlier work.

Consider 3 molecules from patent publication US5932568A, “6-methoxy-1H-benzotriazole-5-carboxamide derivatives and pharmaceutical compositions containing them” (priority 1994, dated 1999).

Where a name gives a salt, the structure may show the parent alone. Bounds are passed on as bounds.

One may read the inhibition in vivo as the relative decrease from the control value, in per cent. As a reminder, the LD50 is the dose expected to kill half of the subjects tested. Take `CCN1CCCC[C@@H](NC(=O)c2cc3nnn(C)c3cc2OC)C1` [Compound 2, (R)-N-(1-ethyl-1H-hexahydroazepin-3-yl)-6-methoxy-1-methyl-1H-benzotriazole-5-carboxamide]: in data set [1] (Canis lupus familiaris, po, 1 h, 0.1 mg/kg oral), the inhibition in vivo at 0.1 mg/kg was determined as 80%. In addition, at 1 mg/kg the inhibition in vivo in [1] (Canis lupus familiaris, po, 1 h, 1.0 mg/kg oral) was 100%. For the same molecule, the “Increase in gastric emptying rate” value in data set [2] is listed as 41%. Also, the “Effect on gastric emptying delayed by cholecystokinin” value was “+” in data set [3] (30 mg/kg oral) and “++” in data set [3] (100 mg/kg oral). Also, the “Gastric emptying delayed by cholecystokinin (in words)” value in data set [3] is recorded as “significantly improved gastric emptying delayed by cholecystokinin”. Further, the Interdigestive migrating like-contractions entry in data set [4] is “caused interdigestive migrating like-contractions in fed state in conscious dogs”. The ED50 in [5] (Mus musculus, read-out: ID50 (inhibition of exploratory activity)) was > 100 mg/kg. The molecule also yielded a 50% lethal dose (LD50) at 168 h in data set [6] of 688 mg/kg. Also, the “Gastrointestinal motility improving activity (in words)” value in data set [7] was “especially excellent gastrointestinal motility improving activity”.

Regarding `CCN1CCCC[C@@H](NC(=O)c2cc3nn[nH]c3cc2OC)C1` [Compound 7b, (R)-N-(1-ethyl-1H-hexahydroazepin-3-yl)-6-methoxy-1H-benzotriazole-5-carboxamide.3/2 fumarate], the figures for the “Inhibition of apomorphine-induced vomiting” value in data set [1] (0.1 mg/kg oral) and in data set [1] (1.0 mg/kg oral) were 69% and 100%, respectively. The “Increase in gastric emptying rate” value in [2] is on record as 34%. In addition, the “Effect on gastric emptying delayed by cholecystokinin” value in [3] (10 mg/kg oral) is given as “+”; in data set [3] (30 mg/kg oral) it was “++”; in data set [3] (100 mg/kg oral) it was “++”. In data set [3], the “Gastric emptying delayed by cholecystokinin (in words)” value is “significantly improved gastric emptying delayed by cholecystokinin or morphine”. Also, the “Effect on gastric emptying delayed by morphine” value in data set [8] (10 mg/kg oral) is “+”; in data set [8] (30 mg/kg oral) it was “++”; in [8] (100 mg/kg oral), “++”. For the same molecule, in data set [8] (10, 30 or 100 mg/kg), the “Gastric emptying delayed by morphine (in words)” value is recorded as “significantly improved gastric emptying delayed by cholecystokinin or morphine”. Moreover, in data set [4], the Interdigestive migrating like-contractions entry is on record as “caused interdigestive migrating like-contractions in fed state in conscious dogs”. In addition, in data set [5], the “ID50 (inhibition of exploratory activity)” value is given as > 100 mg/kg. Also, the 50% lethal dose (LD50) at 168 h in data set [6] is 945 mg/kg. For the same molecule, the “Gastrointestinal motility improving activity (in words)” value in [7] was “especially excellent gastrointestinal motility improving activity”.

`CCN(CC)CCNC(=O)c1cc(Cl)c(N)cc1OC` [metoclopramide, 4-amino-5-chloro-N-[2-(diethylamino)ethyl]-2-methoxybenzamide]: the “Dopamine D2 receptor antagonistic activity” value in data set [9] is recorded as “dopamine D2 receptor antagonistic activity”. In addition, the CNS depressant activity entry in [9] (derived from dopamine D2 receptor antagonistic activity) is “possesses CNS depressant activity”.
